# In patent US6696457B1, “Morphinoid compounds” (SmithKline Beecham p.l.c., priority 1999, dated 2004):
# pIC50: −log10 of the molar value. Where a name gives a salt, the structure may show the parent alone.
# Columns and labels:
# [1] = metabolic stability: intrinsic clearance in liver microsomes; assay type: in vitro ADME, human; conditions: 0.5 uM compound, 0.5 mg/ml microsomal protein, 37° C., 30 minutes, NADPH regenerating system
# Experimental: The metabolic stability of the compounds of the invention was determined in the following manner: the compounds were incubated (37° C.) at 0.5 uM over 30 minutes with microsomal protein (at a concentration of 0.5 mg/ml) and an NADPH regenerating system (cofactor); the incubation volume was made up to a total of 1 mL with 50 mM potassium phosphate buffer (pH 7.4).
# All of the incubation components, apart from cofactor, were pre-incubated for approximately 5 minutes then the reaction was started by the addition of cofactor solution. 50 uL samples were removed from the incubation at 3 minute intervals and placed into 200 uL of acetonitrile (containing an Internal Standard) to precipitate the microsomal protein and terminate the reaction.
# All samples were analysed by LC/MS for parent compound and Internal Standard (I.S) and the results calculated as peak area ratios: compound/I.S.
# The peak area ratios were plotted against time and intrinsic clearance values were calculated from the fitted exponential decay curve:
# CLint (mL/min/g liver)=(k·V·microsomal yield)/[protein] […]
# k=rate constant from the exponential decay curve
# V=incubation volume (1 mL) microsomal yield=standard microsomal protein yield from 1 g liver (52.5 mg) [protein]=protein concentration in each incubation (0.5 mg/mL); a solution containing 0.5 uM of the compound under study was incubated with 0.5 mg of liver microsomal protein over 30 min at 37° C. Samples were taken, protein precipitated with acetonitrile and centrifuged prior HPLC-MS analysis.
# [2] = target: T1, human delta opioid receptor (h-DOR/CHO) (Homo sapiens, UniProt P41143); assay: cAMP bioassay: inhibition of forskolin-stimulated cAMP in h-DOR/CHO cells; assay type: cell-based
# T1 construct: expressed in transfected cells
# T1 sequence (P41143 whole entry): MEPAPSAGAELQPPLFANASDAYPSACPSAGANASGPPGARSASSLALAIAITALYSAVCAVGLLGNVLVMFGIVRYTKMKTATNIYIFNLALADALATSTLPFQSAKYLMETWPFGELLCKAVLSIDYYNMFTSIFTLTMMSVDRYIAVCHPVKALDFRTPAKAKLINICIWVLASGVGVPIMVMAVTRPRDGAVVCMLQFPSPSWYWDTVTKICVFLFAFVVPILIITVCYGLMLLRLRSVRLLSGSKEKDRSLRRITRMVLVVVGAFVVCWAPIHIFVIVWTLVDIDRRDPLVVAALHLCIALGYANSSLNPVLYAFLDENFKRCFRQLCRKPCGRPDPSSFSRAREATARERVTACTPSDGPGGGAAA
# Experimental: The delta agonistlantagonist activity of the compounds of the present invention is determined in the cAMP bioassay in CHO cell lines stably expressing the human delta opioid receptor (h-DOR/CHO).
# For the cAMP assay whole h-DOR/CHO cells were incubated with test compounds in Krebs-Ringer 200 mM, buffered with HEPES, containing (mM): NaCl (125), KCl (5), KH2PO4 (0.4), MgSO4 (1.2), CaCl2 (1.2), NaHCO3(25), glucos (12) and IBMX (1). Cells were treated with forskolin […] to stimulate cAMP synthesis.
# The cAMP content was determined using a double antibody [^125I]-cAMp radioimmunoassay (Amersham RPA 509). The data were normalised to protein content.
# [3] = in vivo clearance and absolute bioavailability
Compound,in vitro Clearance (human microsomes) CL [1] [ml/min/g liver],further results
"Cc1c(C(=O)N(Cc2ccccc2)C(C)C)[nH]c2c1C[C@@]1(O)[C@H]3Cc4ccccc4[C@@]1(CCN3)C2 (as salt: hydrochloride) [Example 2, [10R,4bR-(4b beta,9a beta)]-7-[(N-benzyl-N-isopropyl)aminocarbonyl]-8-methyl-4b,5,9,9a, 10,11-hexahydro-9a-hydroxy-(6H)-10,4b-(iminoethano)phenanthro-[3,2-b]pyrrole]",,melting point: > 250 °C
"Cc1c(C(=O)N(C(C)C)C(C)C)[nH]c2c1CC1(O)C3Cc4ccccc4C1(CCN3)C2 (stereo not drawn) [Example 1, [10R,4bR-(4b beta,9a beta)]-7-(N,N-diisopropyl)aminocarbonyl-8-methyl-4b,5,9,9a, 10,11-hexahydro-9a-hydroxy-(6H)-10,4b-(iminoethano)phenanthro[3,2-b]pyrrole]",1.3,
"Cc1c(C(=O)N(Cc2ccccc2)C(C)C)[nH]c2c1C[C@@]1(O)[C@H]3Cc4ccccc4[C@@]1(CCN3)C2 [Example 2, [10R,4bR-(4b beta,9a beta)]-7-[(N-benzyl-N-isopropyl)aminocarbonyl]-8-methyl-4b,5,9,9a, 10,11-hexahydro-9a-hydroxy-(6H)-10,4b-(iminoethano)phenanthro-[3,2-b]pyrrole]",,"pIC50 [2]: 8.94; antagonism of the agonist activity by the selective delta antagonist naltrindole ([2]; naltrindole 100 nM, h-DOR/CHO cells): completely antagonised"
"CCN(CC)C(=O)c1[nH]c2c(c1C)C[C@@]1(O)[C@H]3Cc4ccccc4[C@@]1(CCN3)C2 [Example 3, [10R,4bR-(4b beta,9a beta)]-7-(N,N-diethyl)aminocarbonyl-8-methyl-4b,5,9,9a, 10,11-hexahydro-9a-hydroxy-(6H)-10,4b-(iminoethano)phenanthro[3,2-b]pyrrole]",0.8,in vivo Clearance CL [3]: 27 ± 2 mL/min/kg; in vivo Absolute bioavailability F ipv ([3]; ipv): 60 ± 7%
"Cc1c(C(=O)N(Cc2ccccc2)C(C)C)[nH]c2c1CC1C3Cc4ccccc4C1(CCN3)C2 (stereo not drawn) [Example 4, [10R,4bS-(4b beta,9a beta)]-7-(N-isopropyl-N-benzyl)aminocarbonyl-8-methyl-4b,5,9,9a, 10,11-hexahydro-(6H)-10-,4b-(iminoethano)phenanthro[3,2-b]pyrrole]",3.3,
"CCN(Cc1ccccc1)C(=O)c1[nH]c2c(c1C)CC1(O)C3Cc4ccccc4C1(CCN3)C2 (stereo not drawn) [Example 5, [10R,4bR-(4b beta,9a beta)]-7-(N-benzyl-N-ethyl)aminocarbonyl-8-methyl-4b,5,9,9a, 10,11-hexahydro-9a-hydroxy-(6H)-10,4b-(iminoethano)phenanthro[3,2-b]pyrrole]",2.0,
"Cc1c(C(=O)N2CCc3ccccc3C2)[nH]c2c1CC1(O)C3Cc4ccccc4C1(CCN3)C2 (stereo not drawn) [Example 6, [10R,4bR-(4b beta,9a beta)]-7-(1,2,3,4-tetrahydroisoquinolin-2-yl)carbonyl-8-methyl-4b,5,9,9a, 10,11-hexahydro-9a-hydroxy-(6H)-1 0,4b-(iminoethano)phenanthro[3,2-b]pyrrole]",<0.6,
"Cc1c(C(=O)CC(C)C)[nH]c2c1C[C@@]1(O)[C@H]3Cc4ccccc4[C@@]1(CCN3)C2 [Example 7, [10R,4bR-(4b beta,9a beta)]-7-isobutylcarbonyl-8-methyl4b,5,9,9a,10,11-hexahydro-9a-hydroxy-(6H)-10,4b-(iminoethano)phenanthro[3,2-b]pyrrole]",<0.6,melting point: 170 to 175 °C
"CCN(C(=O)c1[nH]c2c(c1C)C[C@@]1(O)[C@H]3Cc4ccccc4[C@@]1(CCN3)C2)c1ccccc1 [Example 8, [10R,4bR-(4b beta,9a beta)]-7-[(N-phenyl-N-ethyl)aminocarbonyl]-4b,5,9,9a, 10,11-hexahydro-9a-hydroxy-(6H)-8-methyl-10,4(iminoethano)-phenanthro[3,2-b]pyrrole]",5.9,
"Cc1c2c(n(C)c1C(=O)N(Cc1ccccc1)C(C)C)CC13CCNC(Cc4ccccc41)C3(O)C2 (stereo not drawn) [Example 10, [10R,4bS-(4b beta,9a beta)]-7-(N-benzyl-N-isopropyl)aminocarbonyl-6,8-dimethyl-4b,5,9,9a, 10,11-hexahydro-9a-hydroxy-(6H)-10,4b-(iminoethano)-phenanthro[3,2-b]pyrrole]",5.2,
"CCN(Cc1ccccc1)C(=O)c1c(C)c2c(n1C)CC13CCNC(Cc4ccccc41)C3C2 (stereo not drawn) [Example 11, [10R,4bS-(4b beta,9a beta)]-7-(N-ethyl-N-benzyl)aminocarbonyl-6,8-dimethyl-4b,5,9,9a,10,11-hexahydro-(6H)-10-,4b-(iminoethano)phenanthro[3,2-b]pyrrole]",13.0,
"Cc1c(C(=O)N2CCc3ccccc3C2)[nH]c2c1CC1(O)C3Cc4ccccc4C1(CCN3C)C2 (stereo not drawn) [Example 21, [10R,4bR-(4b beta,9a beta)]-7-(1,2,3,4-tetrahydroisoquinolin-2-yl)carbonyl-8,14-dimethyl-4b,5,9,9a,10,11-hexahydro-9a-hydroxy-(6H)-10,4b-(iminoethano)phenanthro-[3,2-b]pyrrole]",6.0,
"[10R,4bR-(4bb,9ab)]-7-(N,N-diisopropyl)aminocarbonyl-8,14-dimethyl4b,5,9,9a,10,11-hexahydro9a-hydroxy-(6H)-10,4b-(iminoethano)phenanthro[3,2-b]pyrrole. [Example 19]",5.7,
"[10R,4bS-(4b beta,9a beta)]-7-(N-ethyl-N-phenyl)aminocarbonyl-8-methyl-4b,5,9,9a, 10,11-hexahydro-(6H)-10,4b-(iminoethano)phenanthro[3,2-b]pyrrole [Example 9]",4.5,
